According to US6903086B2, “Alkoxycarbonylamino benzoic acid or alkoxycarbonylamino tetrazolyl phenyl derivatives as IP antagonists” (SYNTEX (U.S.A.) LLC, priority 2001, dated 2005):

melting point | Compound
225.9 to 226.2 °C | O=C(Nc1ccc(-c2ccccc2)cc1C(=O)O)OCc1cc2cc(-c3ccccc3)ccc2o1 [compound 10, 4-(5-phenyl-benzofuran-2-ylmethoxycarbonylamino)-biphenyl-3-carboxylic acid]
229.5 to 230 °C | O=C(Nc1cc(-c2ccccc2)ccc1C(=O)O)OCc1cc2cc(-c3ccccc3)ccc2o1 [compound 11, 3-(5-phenyl-benzofuran-2-ylmethoxycarbonylamino)-biphenyl-4-carboxylic acid]
229.4 to 229.6 °C | O=C(Nc1ccc(-c2ccc(F)cc2)cc1C(=O)O)OCc1cc2cc(-c3ccccc3)ccc2o1 [compound 12, 4′-fluoro-4-(5-phenyl-benzofuran-2-ylmethoxycarbonylamino)-biphenyl-3-carboxylic acid]
229.5 to 230 °C | O=C(Nc1ccc(-c2ccsc2)cc1C(=O)O)OCc1cc2cc(-c3ccccc3)ccc2o1 [compound 13, 2-(5-phenyl-benzofuran-2-ylmethoxycarbonylamino)-5-thiophen-3-yl-benzoic acid]
235.1 to 235.7 °C | O=C(Nc1ccc(-c2ccc(F)cc2)cc1C(=O)O)OCc1cc2cc(-c3ccc(F)cc3)ccc2o1 [compound 14, 4′-fluoro-4-[5-(4-fluoro-phenyl)-benzofuran-2-ylmethoxycarbonylamino]-biphenyl-3-carboxylic acid]
231.3 to 231.6 °C | O=C(Nc1ccc(-c2ccccc2)cc1C(=O)O)OCc1cc2cc(-c3ccc(F)cc3)ccc2o1 [compound 15, 4-[5-(4-fluoro-phenyl)-benzofuran-2-ylmethoxycarbonylamino]-biphenyl-3-carboxylic acid]
225.7 to 229.3 °C | O=C(Nc1ccc(-c2cccnc2)cc1C(=O)O)OCc1cc2cc(-c3ccc(F)cc3)ccc2o1 [compound 16, 2-[5-(4-fluoro-phenyl)-benzofuran-2-ylmethoxycarbonylamino]-5-pyridin-3-yl-benzoic acid]
203.6 to 203.8 °C | O=C(Nc1ccccc1C(=O)O)OCc1cc2cc(-c3ccccc3)ccc2o1 [compound 17, 2-(5-phenyl-benzofuran-2-ylmethoxycarbonylamino)-benzoic acid]
225.6 to 225.8 °C | O=C(Nc1cc2ccccc2cc1C(=O)O)OCc1cc2cc(-c3ccccc3)ccc2o1 [compound 18, 3-(5-phenyl-benzofuran-2-ylmethoxycarbonylamino)-naphthalene-2-carboxylic acid]
221.2 to 222 °C | O=C(Nc1ccc(Br)cc1C(=O)O)OCc1cc2cc(-c3ccccc3)ccc2o1 [compound 19, 5-bromo-2-(5-phenyl-benzofuran-2-ylmethoxycarbonylamino)-benzoic acid]
234 to 235 °C | CS(=O)(=O)c1ccc(NC(=O)OCc2cc3cc(-c4ccccc4)ccc3o2)c(C(=O)O)c1 [compound 20, 5-methanesulfonyl-2-(5-phenyl-benzofuran-2-ylmethoxycarbonylamino)-benzoic acid]
213.9 to 214.5 °C | N#Cc1ccc(NC(=O)OCc2cc3cc(-c4ccccc4)ccc3o2)c(C(=O)O)c1 [compound 21, 5-cyano-2-(5-phenyl-benzofuran-2-ylmethoxycarbonylamino)-benzoic acid]
177.7 to 178.5 °C | O=C(Nc1c(Cl)cc(Cl)cc1C(=O)O)OCc1cc2cc(-c3ccc(F)cc3)ccc2o1 [compound 22, 3,5-dichloro-2-[5-(4-fluoro-phenyl)-benzofuran-2-ylmethoxycarbonylamino]-benzoic acid]
210 to 211.9 °C | O=C(Nc1ccc(F)cc1C(=O)O)OCc1cc2cc(-c3ccc(F)cc3)ccc2o1 [compound 23, 5-fluoro-2-[5-(4-fluoro-phenyl)-benzofuran-2-ylmethoxycarbonylamino]-benzoic acid]
216.7 to 217.3 °C | O=C(Nc1ccc(Cl)cc1C(=O)O)OCc1cc2cc(-c3ccc(F)cc3)ccc2o1 [compound 24, 5-chloro-2-[5-(4-fluoro-phenyl)-benzofuran-2-ylmethoxycarbonylamino]-benzoic acid]
216.7 to 217.3 °C | O=C(Nc1cccc(Cl)c1C(=O)O)OCc1cc2cc(-c3ccc(F)cc3)ccc2o1 [compound 25, 2-chloro-6-[5-(4-fluoro-phenyl)-benzofuran-2-ylmethoxycarbonylamino]-benzoic acid]
220.3 to 220.6 °C | O=C(Nc1ccc(Br)cc1C(=O)O)OCc1cc2cc(-c3ccc(F)cc3)ccc2o1 [compound 26, 5-bromo-2-[5-(4-fluoro-phenyl)-benzofuran-2-ylmethoxycarbonylamino]-benzoic acid]
176.1 to 178.8 °C | Cc1cccc(NC(=O)OCc2cc3cc(-c4ccc(F)cc4)ccc3o2)c1C(=O)O [compound 27, 2-[5-(4-fluoro-phenyl)-benzofuran-2-ylmethoxycarbonylamino]-6-methyl-benzoic acid]
190.8 to 191.9 °C | Cc1ccc(NC(=O)OCc2cc3cc(-c4ccc(F)cc4)ccc3o2)c(C(=O)O)c1 [compound 28, 2-[5-(4-fluoro-phenyl)-benzofuran-2-ylmethoxycarbonylamino]-5-methyl-benzoic acid]
160.5 to 164.3 °C | COc1cccc(NC(=O)OCc2cc3cc(-c4ccc(F)cc4)ccc3o2)c1C(=O)O [compound 29, 2-[5-(4-fluoro-phenyl)-benzofuran-2-ylmethoxycarbonylamino]-6-methoxy-benzoic acid]

melting point | Compound
191.5 to 191.9 °C | O=C(Nc1cccc([N+](=O)[O-])c1C(=O)O)OCc1cc2cc(-c3ccc(F)cc3)ccc2o1 [compound 30, 2-[5-(4-fluoro-phenyl)-benzofuran-2-ylmethoxycarbonylamino]-6-nitro-benzoic acid]
213.2 to 215.1 °C | Cc1ccc(NC(=O)OCc2cc3cc(-c4ccsc4)ccc3o2)c(C(=O)O)c1 [compound 31, 5-methyl-2-(5-thiophen-3-yl-benzofuran-2-ylmethoxycarbonylamino)-benzoic acid]
213.2 to 215.1 °C | O=C(Nc1ccc(-c2ccc(F)cc2)cc1C(=O)O)OCc1cc2cc(-c3ccsc3)ccc2o1 [compound 32, 4′-fluoro-4-(5-thiophen-3-yl-benzofuran-2-ylmethoxycarbonylamino)-biphenyl-3-carboxylic acid]
150 °C (dec.) | N#Cc1cccc(NC(=O)OCc2cc3cc(-c4ccc(F)cc4)ccc3o2)c1C(=O)O [compound 33, 2-cyano-6-[5-(4-fluoro-phenyl)-benzofuran-2-ylmethoxycarbonylamino]-benzoic acid]
237.1 to 237.5 °C | O=C(Nc1ccc(-c2ccc(F)cc2)cc1C(=O)O)OCc1cc2cc(-c3cccnc3)ccc2o1 [compound 34, 4′-fluoro-4-(5-pyridin-3-yl-benzofuran-2-ylmethoxycarbonylamino)-biphenyl-3-carboxylic acid]
200.1 to 200.4 °C | Cc1ccc(NC(=O)OCc2cc3cc(-c4cccnc4)ccc3o2)c(C(=O)O)c1 [compound 35, 5-methyl-2-(5-pyridin-3-yl-benzofuran-2-ylmethoxycarbonylamino)-benzoic acid]
172 to 174 °C | O=C(Nc1cccc(Cl)c1C(=O)O)OCc1cc2cc(-c3cccnc3)ccc2o1 [compound 36, 2-chloro-6-(5-pyridin-3-yl-benzofuran-2-ylmethoxycarbonylamino)-benzoic acid]
192.8 to 194.3 °C | O=C(Nc1cccc(Cl)c1C(=O)O)OCc1cc2cc(-c3cncnc3)ccc2o1 [compound 37, 2-chloro-6-(5-pyrimidin-5-yl-benzofuran-2-ylmethoxycarbonylamino)-benzoic acid]
134.8 to 144.1 °C | O=C(Nc1cccc(Cl)c1C(=O)O)OCc1cc2cc(-c3ccccn3)ccc2o1 [compound 38, 2-chloro-6-(5-pyridin-2-yl-benzofuran-2-ylmethoxycarbonylamino)-benzoic acid]
212 to 214.1 °C | O=C(Nc1cccc(Cl)c1C(=O)O)OCc1cc2cc(-c3cnccn3)ccc2o1 [compound 39, 2-chloro-6-(5-pyrazin-2-yl-benzofuran-2-ylmethoxycarbonylamino)-benzoic acid]
179 to 182.2 °C | O=C(Nc1cccc(Cl)c1C(=O)O)OCc1cc2cc(-c3ccnnc3)ccc2o1 [compound 40, 2-chloro-6-(5-pyridazin-4-yl-benzofuran-2-ylmethoxycarbonylamino)-benzoic acid]
213.9 to 214.5 °C | Cc1cc(Br)ccc1NC(=O)OCc1cc2cc(-c3cccnc3)ccc2o1 [compound 41, (4-bromo-2-methyl-phenyl)-carbamic acid 5-pyridin-3-yl-benzofuran-2-ylmethyl ester]
170.6 to 172 °C | O=C(Nc1cccc(Br)c1C(=O)O)OCc1cc2cc(-c3ccc(F)cc3)ccc2o1 [compound 42, 2-bromo-6-[5-(4-fluoro-phenyl)-benzofuran-2-ylmethoxycarbonylamino]-benzoic acid]
169.5 to 170.9 °C | O=C(O)Cc1ccccc1NC(=O)OCc1cc2cc(-c3ccccc3)ccc2o1 [compound 42, [2-(5-phenyl-benzofuran-2-ylmethoxycarbonylamino)-phenyl]-acetic acid]
174.5 to 177.2 °C | O=C(Nc1ccc2ccccc2c1C(=O)O)OCc1cc2cc(-c3ccccc3)ccc2o1 [compound 201, 2-(5-phenyl-benzofuran-2-ylmethoxycarbonylamino)-naphthalene-1-carboxylic acid]
204.5 to 205 °C | O=C(Nc1ccc2ccccc2c1C(=O)O)OCc1cc2cc(-c3ccc(F)cc3)ccc2o1 [compound 202, 2-[5-(4-fluoro-phenyl)-benzofuran-2-ylmethoxycarbonylamino]-naphthalene-1-carboxylic acid]
195 to 196.5 °C | CC(C)Oc1ccc(NC(=O)OCc2cc3cc(-c4ccc(F)cc4)ccc3o2)c(C(=O)O)c1 [compound 301, 2-[5-(4-fluoro-phenyl)-benzofuran-2-ylmethoxycarbonylamino]-5-isopropoxy-benzoic acid]
235.7 to 238.9 °C | O=C(Nc1cc(C(=O)O)cc(-c2ccccc2)c1)OCc1cc2cc(-c3ccccc3)ccc2o1 [compound 401, 5-(5-phenyl-benzofuran-2-ylmethoxycarbonylamino)-biphenyl-3-carboxylic acid]
180 to 183 °C | O=C(Nc1ccc(-c2ccccc2)cc1-c1nnn[nH]1)OCc1cc2cc(-c3ccccc3)ccc2o1 [compound 501]
